The record followed here is patent publication US4791215A, “Derivatives of glutamic acid and aspartic acid” (priority 1984, dated 1988).

For orientation: ED50 means the midpoint of the dose-response relation.

One experiment has as its system morphine analgesia. Kind of experiment: Increase in analgesia of morphine, Tail Flick Test (Experiment 1). The format is in vivo, rats. To be noted: for percentage variation of latency of pain sensation / M (10-90) ± SE, mean percentage variation of latency: compound 10 mg/kg i.p. + morphine 2 mg/kg; for M (10-90) ± SE, mean percentage variation of latency: mean 10-90 min; for Power ratio with respect to morphine alone: rat, in vivo. The gist of the method: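 Tail-flick latency to 75 °C radiant heat, capped at 8 s, measured in male non-fasted rats weighing 150-200 g. Percentage change per animal derived from pre-treatment baseline versus post-drug readings at 10-90 min (10, 20, 30, 45, 60, 90 min).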
For orientation: Thermal pain tests record how soon the animal reacts.

For experiment [1], the system named is intestinal transit of carbon. The experiment in a line: Anti-spastic activity, vegetable carbon intestinal transit test. The format is in vivo, mice. The settings on record: Mus musculus, ip; read-out: antispastic activity ED50 (dose reducing intestinal transit of carbon by 50%). An excerpt:
The anti-spastic activity which the present compounds exert on the entire digestive system is also notable. Measured in mice with the vegetable carbon test (rate of transit through the stomach and the intestine), this activity is illustrated in the following table.
claimed administered intraperitoneally in mice. Values
expressed as the ED 50 in mg/kg, that is the dose which
reduces the intestinal transit of carbon by 50%

In experiment [2] the test system is CCK-8 induced contraction of guinea pig gall bladder. The experiment in a line: Anti-CCK activity on gall bladder strips in vitro. To be noted: CCK-8 10 ng/ml. The gist of the method: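 CCK-8 at 10 ng/ml drove isometric contraction of guinea pig gall bladder strips held at 32 °C in oxygenated Krebs (O2/CO2 95:5). Antagonism was measured at graded compound concentrations and reported as ED50, in μg/ml, for 50% inhibition of the contraction.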

The subject of experiment [3] is endogenous opiates analgesia. The experiment in a line: Analgesic activity of endogenous opiates released by transcutaneous shock, Tail Flick Test (Experiment 3). The experiment is classed as in vivo, rats. The procedure: Experiment No. 3: Influence of several of the compounds of the invention on the analgesic activities of endogenous opiates released by transcutaneous shock in rats and measured by the Tail Flick Test
The method is that described by Lewis et al. J. Neurosc. 1, 358 […]. Male rats which have not fasted and have a weight of about 200 g are used.
The animals are stressed by the application of a 60 Hz-2.5 mA current to the front leg in pulses of a duration of 1 second every 5 seconds for 20 minutes.
This stress regime induces the release of endogenous opiates.

The next experiment relates to biliary flow. Kind of experiment: Biliary flow (choleretic activity). The format is in vivo, rat. The procedure:
The following experiment was carried out: a cannula was inserted in the bile duct of a rat anaesthetised with urethane, together with a small needle connected to a polythene tube, and the bile liquid was thus collected. The collection was carried out for one hour before the intravenous administration of the tested compounds and for a further two hours after administration, the samples collected at 30 minute intervals being weighed.
In order to prevent possible dehydration of the animals, 0.5 ml of physiological solution was administered at 30 minute intervals up to a total of 3 ml.

The subject of experiment [4] is CCK-8 induced contraction of guinea pig gall bladder. The experiment in a line: Anti-CCK-8 activity on gall bladders in situ. The experiment is classed as in vivo. The procedure:
In order to confirm the evidence of the studies in vitro several of the more interesting compounds were tested in vivo on guinea pig gall baldders in situ.
The method used is that described by Ljungberg (Svensk. Farm. Tidskr. 68, 351-354, 1964).
Guinea pigs having a weight of about 400 g, anaesthetised with urethane, were used; the substances under examination were administered intraveneously into the jugular vein.
The responses of the gall bladders to the substances under test were detected by means of a force transducer and recorded by means of a microdynamometer. The optimum contracting dose was chosen as 10 ng/kg of CCK-8. The antagonist compounds tested were administered in increasing doses so as to enable the calculation of an ED50 value, that is in the dose (in mg/kg i.v.) capable of inhibiting 50% of the contracting effect of 10 ng/kg i.v. of CCK-8.
The results obtained are given in Table 7 below, which gives the doses used and the effects obtained expressed as a percentage inhibition of the contracting effect of CCK-8 as well as the ED50 found.

Several values for one entry are separate records, joined by “and”; a condition that tells them apart may be missing. Equal values may be shown once.

With `CCCCN(CCCC)C(=O)CCC(NC(=O)c1cccc(C#N)c1)C(=O)O` [Compound D-5], the “percentage variation of latency of pain sensation” value in the experiment on morphine analgesia (10') is reported as 72.2%; with morphine analgesia (20'), 92.5 ± 7.0%; in the experiment on morphine analgesia (30'), 95.3 ± 5.0%; with morphine analgesia (45') it was 96.0 ± 4.0%; in the experiment on morphine analgesia (60'), 74.3 ± 11.0%; in the experiment on morphine analgesia (90') it was 75.5%. In addition, the “M (10-90) ± SE, mean percentage variation of latency” value in the experiment on morphine analgesia is listed as 84.3 ± 11.4%. In the experiment with morphine analgesia, the “Power ratio with respect to morphine alone” value (shortened to “Power ratio”) was found to be 2.83. The ED50 in experiment [1] amounted to 74.9 mg/kg. Further, in experiment [2], the “ED50 (concentration antagonising 50% of contracting effect of CCK-8)” value is more than 200 µg/mL.
As to `CCCCc1ccc(C(=O)NC(CCC(=O)O)C(=O)N(CCC)CCC)cc1` (stereo not shown) [Compound C-37], the “percentage variation of latency of pain sensation” value is recorded as 27.6 ± 13% in the experiment with morphine analgesia (10'); 45.8 ± 18% in the experiment with morphine analgesia (20'); 55.0 ± 16% with morphine analgesia (30'); 51.1% with morphine analgesia (45'); 23.4 ± 21% in the experiment on morphine analgesia (60'); 12.4 ± 13% in the experiment with morphine analgesia (90'). The “M (10-90) ± SE, mean percentage variation of latency” value with morphine analgesia is 35.9 ± 17%. Besides, the “Power ratio” value with morphine analgesia turned out to be 1.20. Further, the ED50 in experiment [1] came out at 160 mg/kg.
On to `CCCc1ccc(C(=O)NC(CCC(=O)O)C(=O)N(CC)CC)cc1` (stereo not shown) [Compound C-41], for which the “percentage variation of latency of pain sensation” value in the experiment with morphine analgesia (10') is on record as 32.1 ± 18%; in the experiment on morphine analgesia (20'), 60.0 ± 22%; with morphine analgesia (30') it was 40.0 ± 17%; in the experiment with morphine analgesia (45'), 46.7 ± 23%; with morphine analgesia (60'), 11.5%; in the experiment on morphine analgesia (90') it was 7.4 ± 20%. Besides, in the experiment on morphine analgesia, the “M (10-90) ± SE, mean percentage variation of latency” value stood at 32.9 ± 20%. Besides, the “Power ratio” value in the experiment on morphine analgesia was 1.10. Moreover, the ED50 in experiment [1] worked out at 182 mg/kg.
For the compound `CCCN(CCC)C(=O)C(CCC(=O)O)NC(=O)c1ccc(CC)cc1` (stereo not shown) [Compound C-34], the “percentage variation of latency of pain sensation” value in the experiment on morphine analgesia (10') is on record as 19.6 ± 23%; in the experiment with morphine analgesia (20'), 59 ± 17%; in the experiment on morphine analgesia (30') it was 85.5 ± 10%; with morphine analgesia (45') it was 78.4 ± 16%; in the experiment on morphine analgesia (60') it was 67 ± 20%; in the experiment on morphine analgesia (90'), 59.1%. In addition, in the experiment on morphine analgesia, the “M (10-90) ± SE, mean percentage variation of latency” value is reported as 60.6 ± 23%. Further, the “Power ratio” value in the experiment on morphine analgesia was 2.03. In addition, the ED50 in experiment [1] is 65.5 mg/kg. Also, the “average latency, Tail Flick” value in experiment [3] (compound 1 mg/kg iv + stress, 5') amounted to 5.40 ± 0.35 s; in experiment [3] (compound 1 mg/kg iv + stress, 10'), 4.9 ± 0.25 s; in experiment [3] (compound 1 mg/kg iv + stress, 15'), 3.4 ± 0.16 s; in experiment [3] (compound 3 mg/kg iv + stress, 5'), 6.56 ± 0.33 s; in experiment [3] (compound 3 mg/kg iv + stress, 10'), 5.58 ± 0.31 s; in experiment [3] (compound 3 mg/kg iv + stress, 15') it was 3.98 ± 0.32 s. In addition, the “ED50 (concentration antagonising 50% of contracting effect of CCK-8)” value in experiment [2] was 40.1 µg/mL.
As to `CCCN(CCC)C(=O)C(CCC(=O)O)NC(=O)c1cccc(C)c1` (stereo not shown) [Compound C-28], the “percentage variation of latency of pain sensation” value in the experiment with morphine analgesia (10') is 15.7 ± 10%; in the experiment with morphine analgesia (20'), 66.8 ± 18%; in the experiment with morphine analgesia (30') it was 68.3 ± 20%; in the experiment with morphine analgesia (45'), 68.4 ± 17%; in the experiment on morphine analgesia (60'), 74.5 ± 11%; in the experiment with morphine analgesia (90'), 27.5 ± 15%. For the same compound, the “M (10-90) ± SE, mean percentage variation of latency” value with morphine analgesia is given as 53.5 ± 25%. The “Power ratio” value in the experiment with morphine analgesia amounted to 1.80. The ED50 in experiment [1] came to 91.8 mg/kg. For the same compound, in experiment [2], the “ED50 (concentration antagonising 50% of contracting effect of CCK-8)” value was more than 300 µg/mL.
For `N#Cc1cccc(C(=O)NC(CCC(=O)N2CCCCC2)C(=O)O)c1` [Compound D-11], the “percentage variation of latency of pain sensation” value in the experiment with morphine analgesia (10') is reported as 25.3 ± 7.0%; with morphine analgesia (20'), 68.3%; with morphine analgesia (30'), 74.8 ± 18.0%; with morphine analgesia (45'), 82.8 ± 17.0%; with morphine analgesia (60'), 86.2 ± 14.0%; with morphine analgesia (90'), 77.5 ± 13.0%. Further, in the experiment on morphine analgesia, the “M (10-90) ± SE, mean percentage variation of latency” value came out at 69.1%. In addition, the “Power ratio” value in the experiment with morphine analgesia was found to be 2.32. The entries for the “% increase in biliary flow with respect to controls” value in the experiment on biliary flow (12.5 mg/kg i.v.), in the experiment on biliary flow (25 mg/kg i.v.) and with biliary flow (50 mg/kg i.v.) were “+33.7%”, “+80.0%” and “+118.8%”, respectively. The ED50 in the experiment on biliary flow (Rattus norvegicus, iv, average over 2 hours, read-out: ED50 (dose causing 50% increase in biliary flow)) amounted to 18.5 mg/kg. In experiment [2], the “ED50 (concentration antagonising 50% of contracting effect of CCK-8)” value was more than 200 µg/mL.
Take `CCCN(CCC)C(=O)C(CCC(=O)O)NC(=O)c1cc(C)cc(C)c1` (stereo not shown) [Compound C-31]: the “percentage variation of latency of pain sensation” value in the experiment with morphine analgesia (10') was determined as 28.9 ± 17%; in the experiment on morphine analgesia (20') it was 43.3 ± 25%; in the experiment on morphine analgesia (30') it was 54.7 ± 22%; in the experiment with morphine analgesia (45') it was 68.0 ± 22%; in the experiment with morphine analgesia (60'), 57.4 ± 16%; with morphine analgesia (90'), 49.5 ± 19%. Moreover, the “M (10-90) ± SE, mean percentage variation of latency” value in the experiment on morphine analgesia was determined as 50.4 ± 14%. In the experiment on morphine analgesia, the “Power ratio” value came to 1.69. In addition, the “percentage inhibition of contracting effect of CCK-8” value in experiment [4] (30 mg/kg i.v., single experiments) was 82.1% and 92.5% and 58.7%. Further, the ED50 in experiment [4] (Cavia porcellus, iv, CCK-8 10 ng/kg i.v., read-out: ED50 (inhibition of 50% of contracting effect of CCK-8)) was 16.3 mg/kg. Moreover, the “ED50 (concentration antagonising 50% of contracting effect of CCK-8)” value in experiment [2] is 22.9 µg/mL.
With `CCCCN(CCCC)C(=O)C(CCC(=O)O)NC(=O)c1ccc(I)cc1` (stereo not shown) [Compound C-27], the “percentage variation of latency of pain sensation” value in the experiment on morphine analgesia (10') was 52.3 ± 13.0%; in the experiment with morphine analgesia (20') it was 81.4%; with morphine analgesia (30') it was 90.2 ± 7.0%; in the experiment on morphine analgesia (45'), 85.9 ± 10.0%; in the experiment on morphine analgesia (60'), 60.3 ± 15.0%; in the experiment with morphine analgesia (90') it was 50.3 ± 13.0%. Further, the “M (10-90) ± SE, mean percentage variation of latency” value with morphine analgesia is given as 70.0 ± 17.8%. Moreover, the “Power ratio” value in the experiment with morphine analgesia stood at 2.35. Besides, the ED50 in experiment [1] came out at 40.3 mg/kg. Moreover, the “ED50 (concentration antagonising 50% of contracting effect of CCK-8)” value in experiment [2] worked out at 10.2 µg/mL.
`CCCCCCNC(=O)C(CCC(=O)O)NC(=O)c1ccc(C)c(C)c1` (stereo not shown) [Compound C-46]: the “percentage variation of latency of pain sensation” value in the experiment with morphine analgesia (10') was 14.7 ± 9%; in the experiment on morphine analgesia (20'), 60.0 ± 18%; with morphine analgesia (30') it was 28.0 ± 5%; in the experiment on morphine analgesia (45') it was 55.2 ± 20%; in the experiment on morphine analgesia (60'), 30.2 ± 17%; in the experiment with morphine analgesia (90') it was 12.2 ± 11%. The “M (10-90) ± SE, mean percentage variation of latency” value in the experiment on morphine analgesia came to 32.9 ± 21%. Moreover, the “Power ratio” value with morphine analgesia came to 1.10. For the same compound, in experiment [1], the ED50 was determined as 66.9 mg/kg.
